Measurements reported in ChEMBL document CHEMBL1770144, “Discovery of potent nucleotide-mimicking competitive inhibitors of hepatitis C virus NS3 helicase” (Bioorg Med Chem Lett, 2011).

Tests used:
[1] = Competitive inhibition of Hepatitis C virus NS3 helicase; parameters: species or system Hepacivirus hominis
[2] = Competitive inhibition of Hepatitis C virus NS3 helicase using nucleic acid as substrate; parameters: species or system Hepacivirus hominis

## Cc1cc(NNC(=O)c2cnccn2)c2ccccc2n1
[1]
  Ki: > 300 µM

## CCOc1ccc2c(NNS(=O)(=O)c3ccccn3)cc(C)nc2c1
[1]
  Ki: 0.3 µM

## CCOc1ccc2c(NNC(=O)c3ccco3)cc(C)nc2c1
[1]
  Ki: > 300 µM

## CCOc1ccc2c(NNC(=O)c3cnccn3)cc(C)nc2c1
[1]
  Ki: 0.75 µM

## CCOc1ccc2c(NNC(=O)[C@@H]3CSCN3)cc(C)nc2c1
[1]
  Ki: > 300 µM

## CCOc1ccc2c(NNS(=O)(=O)c3ccccc3)cc(C)nc2c1
[1]
  Ki: 5 µM

## O=C(NNc1c2c(nc3ccccc13)CCCC2)c1cnccn1
[1]
  Ki: > 300 µM

## CCOc1ccc2c(NNC(=O)c3cnccn3)c3c(nc2c1)CCCC3
[1]
  Ki: 0.02 µM
[2]
  Ki: 0.02 µM

## CCOc1ccc2c(NNC(=O)c3ccccc3)cc(C)nc2c1
[1]
  Ki: 125 µM

## CCOc1ccc2c(NNC(=O)c3cc4ccccc4cn3)cc(C)nc2c1
[1]
  Ki: 250 µM

## CCOc1ccc2c(NNS(=O)(=O)c3ccc(C)cc3)cc(C)nc2c1
[1]
  Ki: 75 µM

## CCOc1ccc2nc(C)cc(NNC(=O)c3cnccn3)c2c1
[1]
  Ki: > 300 µM

## CCOc1ccc2c(NNS(=O)(=O)c3ccccc3)c3c(nc2c1)CCCC3
[1]
  Ki: 0.16 µM

## CCOc1ccc2c(NNS(=O)(=O)c3ccccn3)c3c(nc2c1)CCCC3
[1]
  Ki: 0.1 µM
